Legend:
ERα LBD = target: T1, ERα LBD (Homo sapiens, UniProt P03372); experiment: LanthaScreen TR-FRET ERα competitive binding assay
T1 sequence (P03372 311-547 limits assumed): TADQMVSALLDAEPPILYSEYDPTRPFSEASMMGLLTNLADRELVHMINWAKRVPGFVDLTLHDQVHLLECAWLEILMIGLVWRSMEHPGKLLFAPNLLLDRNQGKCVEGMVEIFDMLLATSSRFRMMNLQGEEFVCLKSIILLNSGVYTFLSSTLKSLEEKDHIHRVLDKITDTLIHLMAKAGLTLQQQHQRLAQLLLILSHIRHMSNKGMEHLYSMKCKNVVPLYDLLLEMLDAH

ERα [1] = target: T2, ERα (Homo sapiens, UniProt P03372); experiment: Alkaline phosphatase; assay type: cell-based; conditions: Ishikawa, read-out: AP % E max, Ishikawa (ECC-1) cells, agonist mode, 72 h
T2 sequence (P03372 1-595): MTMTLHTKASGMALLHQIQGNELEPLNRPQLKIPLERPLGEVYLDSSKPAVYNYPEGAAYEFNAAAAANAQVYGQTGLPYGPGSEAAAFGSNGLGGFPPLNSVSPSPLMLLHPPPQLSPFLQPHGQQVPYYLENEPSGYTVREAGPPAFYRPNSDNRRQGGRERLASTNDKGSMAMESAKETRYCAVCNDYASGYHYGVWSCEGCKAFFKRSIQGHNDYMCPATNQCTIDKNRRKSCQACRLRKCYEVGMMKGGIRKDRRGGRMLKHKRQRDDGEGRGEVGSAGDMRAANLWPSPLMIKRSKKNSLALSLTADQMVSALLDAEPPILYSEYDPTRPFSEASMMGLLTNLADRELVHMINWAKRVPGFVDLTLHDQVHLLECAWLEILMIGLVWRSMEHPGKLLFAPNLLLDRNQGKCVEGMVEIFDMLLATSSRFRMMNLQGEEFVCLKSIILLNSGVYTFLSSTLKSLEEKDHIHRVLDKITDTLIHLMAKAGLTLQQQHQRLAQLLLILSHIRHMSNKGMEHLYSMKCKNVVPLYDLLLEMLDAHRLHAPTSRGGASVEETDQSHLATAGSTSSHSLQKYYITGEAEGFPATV

ERα [2] = target: T2, ERα; experiment: Alkaline phosphatase; assay type: cell-based
[3] = Mouse hepatocyte stability; assay type: in vitro ADME; conditions: hepatocytes
[4] = Human hepatocyte stability; assay type: in vitro ADME; conditions: hepatocytes
[5] = In vivo mouse oral single dose PK; conditions: for total AUCinf / free AUCinf: oral single dose; for free AUCinf: estimated based on the percent free fraction; for Cmax / half-life: plasma, po
[6] = Plasma protein binding, rapid equilibrium dialysis, mouse plasma; assay type: in vitro ADME; conditions: undiluted plasma
[7] = system: E2-induced uterine wet weight; experiment: Ovariectomized mouse uterine wet weight study; assay type: in vivo; conditions: dose giving 50% inhibition of E2-induced uterine wet weight; oral, once daily, 3 days

SMILES	IC50 (ERα LBD) [nM]	Emax (ERα [1]) [%]	IC50 (ERα [2]) [nM]	half-life [3] [h]	hepatocyte CLint [3] [µL/min/1e6 cells]	half-life [4] [h]	hepatocyte CLint [4] [µL/min/1e6 cells]	other results
C[C@@H]1Cc2c([nH]c3ccccc23)[C@@H](c2ccc(CCCN3CC(CF)C3)cc2)N1CC(C)(C)F [compound 22, C[C@@H]1Cc2c([nH]c3ccccc23)[C@H](N1CC(C)(C)F)c1ccc(cc1)CCCN1CC(CF)C1]	1.58	> 50						
C[C@@H]1Cc2c([nH]c3ccccc23)[C@@H](c2ccc(OCCN3CC(CF)C3)cc2)N1CC(C)(C)F [compound 23, C[C@@H]1Cc2c([nH]c3ccccc23)[C@H](N1CC(C)(C)F)c1ccc(cc1)OCCN1CC(CF)C1]	1.58		1.26	5.37	4.3	3.82	6.1	total AUCinf [5]: 2289 ng·h/mL; free AUCinf [5]: 3.9 ng·h/mL; Cmax [5]: 186 ng/mL; half-life [5]: 7 h; fraction unbound at 4 h, 1 µM [6]: 0.0017; uterine wet weight ID50 [7]: <0.1 mg/kg
CCCN1CC(Cc2ccc([C@@H]3c4[nH]c5ccccc5c4C[C@@H](C)N3CC(C)(C)F)cc2)C1 [compound 24, CCCN1CC(C1)Cc1ccc(cc1)[C@H]1N(CC(C)(C)F)[C@H](C)Cc2c1[nH]c1ccccc21]	3.98	8.5	3.16					
C[C@@H]1Cc2c([nH]c3ccccc23)[C@@H](c2ccc(CCCN3CC(CF)C3)c(F)c2)N1CC(C)(C)F [compound 25, C[C@@H]1Cc2c([nH]c3ccccc23)[C@H](N1CC(C)(C)F)c1ccc(c(c1)F)CCCN1CC(CF)C1]	3.98	22	7.94					
C[C@@H]1Cc2c([nH]c3ccccc23)[C@@H](c2ccc(OCCN3CC(CF)C3)c(F)c2)N1CC(C)(C)F [compound 26, C[C@@H]1Cc2c([nH]c3ccccc23)[C@H](N1CC(C)(C)F)c1ccc(c(c1)F)OCCN1CC(CF)C1]	2.51	2.1	2	3.78	6.1	4.55	5.1	
CCCN1CC(Cc2ccc([C@@H]3c4[nH]c5ccccc5c4C[C@@H](C)N3CC(C)(C)F)cc2F)C1 [compound 27, CCCN1CC(C1)Cc1ccc(cc1F)[C@H]1N(CC(C)(C)F)[C@H](C)Cc2c1[nH]c1ccccc21]	2	7.4	5.01					
CCCN1CC(Oc2ccc([C@@H]3c4[nH]c5ccccc5c4C[C@@H](C)N3CC(C)(C)F)cc2F)C1 [compound 28, CCCN1CC(C1)Oc1ccc(cc1F)[C@H]1N(CC(C)(C)F)[C@H](C)Cc2c1[nH]c1ccccc21]	3.98	3.1	10					
C[C@@H]1Cc2c([nH]c3ccccc23)[C@@H](c2c(F)cc(CCCN3CC(CF)C3)cc2F)N1CC(C)(C)F [compound 29, C[C@@H]1Cc2c([nH]c3ccccc23)[C@H](N1CC(C)(C)F)c1c(cc(cc1F)CCCN1CC(CF)C1)F]	2.51							
C[C@@H]1Cc2c([nH]c3ccccc23)[C@@H](c2c(F)cc(OCCN3CC(CF)C3)cc2F)N1CC(C)(C)F [compound 30, C[C@@H]1Cc2c([nH]c3ccccc23)[C@H](N1CC(C)(C)F)c1c(cc(cc1F)OCCN1CC(CF)C1)F]				> 6	< 3.9	4.5	5.1	total AUCinf [5]: 2090 ng·h/mL; free AUCinf [5]: 0.8 ng·h/mL; Cmax [5]: 112 ng/mL; half-life [5]: 11 h; fraction unbound at 4 h, 1 µM [6]: 0.0004
CCCN1CC(Cc2cc(F)c([C@@H]3c4[nH]c5ccccc5c4C[C@@H](C)N3CC(C)(C)F)c(F)c2)C1 [compound 31, CCCN1CC(C1)Cc1cc(c(c(c1)F)[C@H]1N(CC(C)(C)F)[C@H](C)Cc2c1[nH]c1ccccc21)F]	5.01	5.4	1.58	> 6	< 3.9	> 6	< 3.9	
CCCN1CC(Oc2cc(F)c([C@@H]3c4[nH]c5ccccc5c4C[C@@H](C)N3CC(C)(C)F)c(F)c2)C1 [compound 32, CCCN1CC(C1)Oc1cc(c(c(c1)F)[C@H]1N(CC(C)(C)F)[C@H](C)Cc2c1[nH]c1ccccc21)F]				> 6	< 3.9	5.4	4.3	total AUCinf [5]: 2743 ng·h/mL; free AUCinf [5]: 0.3 ng·h/mL; Cmax [5]: 219 ng/mL; half-life [5]: 15 h; fraction unbound at 4 h, 1 µM [6]: 0.0001
C[C@@H]1Cc2c([nH]c3ccccc23)[C@@H](c2ccc(OC3CN(C)C3)cc2)N1CC(C)(C)F [compound 33, C[C@@H]1Cc2c([nH]c3ccccc23)[C@H](N1CC(C)(C)F)c1ccc(cc1)OC1CN(C)C1]	0.501	10	7.94					
CCN1CC(Oc2ccc([C@@H]3c4[nH]c5ccccc5c4C[C@@H](C)N3CC(C)(C)F)cc2)C1 [compound 34, CCN1CC(C1)Oc1ccc(cc1)[C@H]1N(CC(C)(C)F)[C@H](C)Cc2c1[nH]c1ccccc21]	0.501	4.6						
CCCCN1CC(Oc2ccc([C@@H]3c4[nH]c5ccccc5c4C[C@@H](C)N3CC(C)(C)F)cc2)C1 [compound 35, CCCCN1CC(C1)Oc1ccc(cc1)[C@H]1N(CC(C)(C)F)[C@H](C)Cc2c1[nH]c1ccccc21]	1.58	27						
CCCCCN1CC(Oc2ccc([C@@H]3c4[nH]c5ccccc5c4C[C@@H](C)N3CC(C)(C)F)cc2)C1 [compound 36, CCCCCN1CC(C1)Oc1ccc(cc1)[C@H]1N(CC(C)(C)F)[C@H](C)Cc2c1[nH]c1ccccc21]	2.51	93						
CCCN1CC(Oc2ccc([C@@H]3c4[nH]c5ccccc5c4C[C@@H](C)N3C[C@H](C)CO)cc2)C1 [compound 37, CCCN1CC(C1)Oc1ccc(cc1)[C@H]1N(C[C@H](C)CO)[C@H](C)Cc2c1[nH]c1ccccc21]	0.501	0.7	10					
CCCN1CC(Oc2ccc([C@@H]3c4[nH]c5ccccc5c4C[C@@H](C)N3CC(F)(F)CO)cc2)C1 [compound 38, CCCN1CC(C1)Oc1ccc(cc1)[C@H]1N(CC(F)(F)CO)[C@H](C)Cc2c1[nH]c1ccccc21]	1	0	0.158	3.83	6	1.27	18.2	
CCCN1CC(Oc2ccc([C@@H]3c4[nH]c5ccccc5c4C[C@@H](C)N3CCC(C)(C)O)cc2)C1 [compound 39, CCCN1CC(C1)Oc1ccc(cc1)[C@H]1N(CCC(C)(C)O)[C@H](C)Cc2c1[nH]c1ccccc21]	1.26	2	398					
CCCN1CC(Oc2ccc([C@@H]3c4[nH]c5ccccc5c4C[C@@H](C)N3C[C@@H](C)CO)cc2)C1 [compound 40, CCCN1CC(C1)Oc1ccc(cc1)[C@H]1N(C[C@@H](C)CO)[C@H](C)Cc2c1[nH]c1ccccc21]	1.26	0.4	3.16	3.05	7.6	2.62	8.8	
CCCN1CC(Oc2ccc([C@@H]3c4[nH]c5ccccc5c4C[C@@H](C)N3CC(F)(F)COC)cc2)C1 [compound 41, CCCN1CC(C1)Oc1ccc(cc1)[C@H]1N(CC(F)(F)COC)[C@H](C)Cc2c1[nH]c1ccccc21]	1	0.9	5.01	1.27	18.2	1.65	14.1	potency loss in AP (antag.) relative to 38 (ERα [2]; replacing OH with OMe): 1.5 log
CCCN1CC(Oc2ccc([C@@H]3c4[nH]c5ccccc5c4C[C@@H](C)N3CCC(C)(C)F)cc2)C1 [compound 42, CCCN1CC(C1)Oc1ccc(cc1)[C@H]1N(CCC(C)(C)F)[C@H](C)Cc2c1[nH]c1ccccc21]	15.8	0	50.1					
C[C@]12CC[C@@H]3c4ccc(O)cc4C[C@@H](CCCCCCCCC[S+]([O-])CCCC(F)(F)C(F)(F)F)[C@H]3[C@@H]1CC[C@@H]2O (stereo partly shown) [fulvestrant 3, fulvestrant, reference compound]		0.1						
